The values that follow come from the Deep4Chem optical property database.

This data set can be described thus: solvent given as SMILES.
Setting [1] is: in O=P(c1ccccc1)(c1ccccc1)c1ccccc1Oc1ccccc1P(=O)(c1ccccc1)c1ccccc1.

In turn, `CC(=O)OC[C@H]1O[C@@H](OCC#Cc2ccc(C3=C4C(C)=CC(/C=C/c5ccc(N(C)C)cc5)=[N+]4[B-](F)(F)n4c(/C=C/c5ccc(N(C)C)cc5)cc(C)c43)cc2)[C@H](OC(C)=O)C(OC(C)=O)[C@@H]1OC(C)=O` (stereo partly specified) displayed a fluorescence lifetime (in CC#N) of 2.4 ns.

Turning to `O=S(=O)(/N=c1\oc2cccc3c4c(-c5ccccc5)oc5cccc(c(c1-c1ccccc1)c23)c54)C(F)(F)F`, the fluorescence lifetime reads like this: (in CCCCCC) 3.8 ns; (in CO) 7.5 ns; (in CS(C)=O) 6.6 ns; (in ClC(Cl)Cl) 5.6 ns; (in ClCCl) 6.2 ns; (in O) 2.3 ns.

For the compound `COc1ccc(-c2cc3c(s2)c(C(C)=O)cc(=O)n3C)cc1`, under “in ClCCl”, the fluorescence lifetime stood at 1.51 ns.

Turning to `COC(=O)C(NC(=O)OC(C)(C)C)c1ccc2oc(-c3ccc(N(C)C)cc3OC)nc2c1` (stereo unspecified), the fluorescence lifetime is, setting by setting: (in CC1CCCCC1) 1.25 ns; (in CC#N) 1.24 ns; (in CO) 1.32 ns.

On to `Cc1ccc2ccc3cccc4ccc1c2c34`, for which the fluorescence lifetime is, setting by setting: (in CCCCCC) 67.8 ns; (in CO) 132 ns; (in ClCCl) 79.1 ns.

Regarding `O=C([O-])c1ccccc1-c1c2cc(I)c(=O)c(I)c-2oc2c(I)c([O-])c(I)cc12`, the fluorescence lifetime is, setting by setting: (in CC(C)O) 0.66 ns; (in CCO) 0.565 ns; (in CO) 0.5 ns; (in O) 0.115 ns.

As to `Cc1c2oc3c(C)c(N)cc(C(=O)NC4OC(=O)C(C(C)C)N(C)C(=O)CN(C)C(=O)C5CCCN5C(=O)C(C(C)C)NC4=O)c3nc-2c(C(=O)NC2OC(=O)C(C(C)C)N(C)C(=O)CN(C)C(=O)C3CCCN3C(=O)C(C(C)C)NC2=O)c(N)c1=O` (stereo unspecified), the fluorescence lifetime stood at 1.07 ns (in C1CCCCC1); 1.54 ns (in CC#N); 0.49 ns (in CC(=O)O); 0.93 ns (in CC(C)=O); 1.5 ns (in CCCCO); 1.1 ns (in CCCCOC(C)=O). The fluorescence lifetime came to 1.34 ns (in CCCO); 0.62 ns (in CCN(CC)CC); 1.22 ns (in CCO); 1.19 ns (in CCOC(C)=O); 0.5 ns (in CO); 1.8 ns (in CS(C)=O). The fluorescence lifetime was determined as 1.23 ns (in Cc1ccccc1); 1.02 ns (in ClC(Cl)Cl); 1.16 ns (in ClCCCl); 0.75 ns (in O); 0.37 ns (in O=[N+]([O-])c1ccccc1); 1.08 ns (in [2H]O[2H]). The fluorescence lifetime runs as follows: (in c1ccccc1) 1.22 ns; (in c1ccncc1) 1.53 ns.

Regarding `CCCCCCN1C(=O)c2cc(-c3ccc(-n4c5ccccc5c5ccccc54)cc3)c(-c3ccc(-n4c5ccccc5c5ccccc54)cc3)cc2C1=O`, the fluorescence lifetime by setting is: (in ClC(Cl)Cl) 11.2 ns; (in c1ccc2c(c1)c1ccccc1n2-c1ccc(-c2ccc(-n3c4ccccc4c4ccccc43)cc2)cc1) 10 ns.

For the setting “in C1CCOC1”, `COc1ccc(C(=Cc2ccc(/C=C(\C#N)c3ccc([N+](=O)[O-])cc3)cc2)c2ccc(OC)cc2)cc1` came in with a fluorescence lifetime of 1.4 ns.

Take `[C-]#[N+]c1ccc(-c2ccc(NC)cc2)cc1`: the fluorescence lifetime is 1.8 ns (in CC#N) and 1.4 ns (in CCOC(C)=O).

Turning to `COc1ccc(/C=C/c2nc3c4ccccc4c4ccccc4c3o2)cc1`, the fluorescence lifetime (in CC#N) was determined as 0.97 ns.

For the setting “in c1cc(-c2cccc(-n3c4ccccc4c4ccccc43)c2)cc(-n2c3ccccc3c3ccccc32)c1”, `CC(C)(C)c1ccc2c(c1)c1cc(C(C)(C)C)ccc1n2-c1cc(C(=O)c2ccncc2)cc(-n2c3ccc(C(C)(C)C)cc3c3cc(C(C)(C)C)ccc32)c1` had a fluorescence lifetime of 28.1 ns.

The compound `c1ccc2cc3cnccc3cc2c1` showed a fluorescence lifetime (in CCO) of 20 ns.

`Cc1ccc2nc3c(=O)[nH]c(=O)[nH]c3nc2c1`: the fluorescence lifetime was determined as 0.4 ns (in CC#N) and 0.32 ns (in ClCCCl).

For the setting “in ClCCl”, `COc1ccc(-c2c3ccccc3c(C#Cc3ccccc3)c3cc4ccccc4cc23)cc1` showed a fluorescence lifetime of 9.7 ns.

In turn, `Cc1ccc(C(=O)/N=c2\oc3cccc4c5c(-c6ccccc6)oc6cccc(c(c2-c2ccccc2)c34)c65)cc1` yielded a fluorescence lifetime (in ClC(Cl)Cl) of 2.1 ns.

Compound `COc1cc(/C=C2/SC(=O)NC2=O)cc(OC)c1O` gave a fluorescence lifetime (in C1CCCCC1) of 0.941 ns; a fluorescence lifetime (in C1COCCO1) of 1.44 ns; a fluorescence lifetime (in CC#N) of 0.521 ns; a fluorescence lifetime (in CN(C)C=O) of 4.47 ns; a fluorescence lifetime (in CO) of 0.39 ns; a fluorescence lifetime (in O) of 0.34 ns. The compound further yielded a fluorescence lifetime (in OCC(O)CO) of 4.92 ns and a fluorescence lifetime (in OCCO) of 2.25 ns.

In the case of `COc1ccc(C#Cc2ccc(C#Cc3ccc(C#Cc4ccccc4C#N)cc3C#N)cc2C#N)cc1`, the fluorescence lifetime reads like this: (in C1CCOC1) 1.29 ns; (in CC#N) 1.29 ns; (in CN(C)C=O) 1.38 ns; (in ClC(Cl)Cl) 1.36 ns; (in c1ccccc1) 1.45 ns.

Compound `c1ccc2nc3cccc(-c4ccc(-n5c6ccccc6c6ccccc65)cc4)c3cc2c1` had a fluorescence lifetime (in CC#N) of 10.6 ns, a fluorescence lifetime (in CCCCCC) of 0.2 ns, a fluorescence lifetime (in CCOCC) of 0.2 ns and a fluorescence lifetime (in ClCCl) of 6.68 ns.

As to `N#Cc1ccc(C#Cc2ccccc2C#N)cc1`, the fluorescence lifetime (in ClC(Cl)Cl) stood at 2.64 ns.

In the case of `COc1ccc2c3cccc4c(OC)ccc(c5cccc1c52)c43`, the fluorescence lifetime runs as follows: (in C1CCOC1) 3.95 ns; (in Cc1ccccc1) 3.6 ns; (in ClC(Cl)(Cl)Cl) 3.65 ns; (in ClC(Cl)Cl) 3.89 ns; (in ClCCl) 4.33 ns; (in c1ccncc1) 4.02 ns.

In turn, `CC1=CC(/C=C/c2ccc([N+](C)(C)C)cc2)=[N+]2C1=C(c1ccc(C#CCO[C@@H]3O[C@H](CO)[C@@H](O)C(O)[C@H]3O)cc1)c1c(C)cc(/C=C/c3ccc([N+](C)(C)C)cc3)n1[B-]2(F)F` (stereo partly specified) registered a fluorescence lifetime (in CC#N) of 5.3 ns.

As to `N#Cc1ccc2c(c1)CCc1nc(-c3ccc([N+](=O)[O-])cc3)c3c(c1-2)CCc1cc(C#N)ccc1-3`, the fluorescence lifetime came to 1.36 ns (in C1CCOC1); 1.11 ns (in CC#N); 0.64 ns (in CCCCCC); 1.11 ns (in CCOC(C)=O); 0.84 ns (in CO); 1.24 ns (in CS(C)=O). The fluorescence lifetime turned out to be 0.88 ns (in Cc1ccccc1) and 1.46 ns (in ClCCl).

With `CCCn1c2cccc3c2[c+]2c4c1cccc4n(CCC)c1cccc(c12)n3CCC`, the fluorescence lifetime reads like this: (in CC#N) 7.5 ns; (in CO) 9.9 ns; (in ClCCl) 6.3 ns; (in OCC(O)CO) 11 ns.

Take `CCCCCn1c2ccccc2c(=O)c2ccccc21`: where the note is “in CS(C)=O”, the fluorescence lifetime worked out at 8.1 ns.

In the case of `F[B-]1(F)Oc2ccccc2-c2cc(-n3c4ccccc4c4ccccc43)cc[n+]21`, under setting [1], the fluorescence lifetime was determined as 6.7 ns.

Take `CCNc1ccc2c(C(F)(F)F)cc(=O)oc2c1`: the fluorescence lifetime by setting is: (in C1CCC2CCCCC2C1) 3.67 ns; (in C1CCCCC1) 3.56 ns; (in CC1CCCCC1) 3.55 ns; (in CC#N) 5.23 ns; (in CC(C)=O) 5.08 ns; (in CC(C)O) 5.14 ns. Moreover, the fluorescence lifetime by setting is: (in CCC(C)CC) 3.39 ns; (in CCCC(C)C) 3.38 ns; (in CCCCCC) 3.3 ns; (in CCCCCCO) 5.23 ns; (in CCCCO) 5.24 ns; (in CCO) 5.04 ns. The fluorescence lifetime by setting is: (in CCOC(C)=O) 4.83 ns; (in CO) 4.84 ns.

Compound `C[Si](C)(C)c1ccc(-c2ccc(-c3ccc(-c4ccc(-c5ccc([Si](C)(C)C)cc5)s4)c4nsnc34)s2)cc1` had a fluorescence lifetime (in C1CCOC1) of 6.9 ns.

In the case of `CC(C)(C)c1ccc2cc3c4cccc5cccc(c6cc(C(C)(C)C)cc(c2c1)c63)c54`, the fluorescence lifetime (in CC1CCCCC1) turned out to be 3.6 ns.

For `CC1(C)Nc2cc(Cl)ccc2-c2[nH]c3ccccc3c(=O)c21`, the fluorescence lifetime was 7.47 ns (in C1CCOC1); 8.72 ns (in CC#N); 9.26 ns (in CCCCO); 9.2 ns (in CCCO); 9 ns (in CCO); 7.52 ns (in CCOC(C)=O). The fluorescence lifetime reads like this: (in CN(C)C=O) 9.36 ns; (in CO) 8.67 ns; (in CS(C)=O) 9.91 ns; (in Cc1ccccc1) 6.68 ns; (in ClC(Cl)(Cl)Cl) 4.8 ns; (in ClCCl) 8.06 ns. Further, the fluorescence lifetime was 8.68 ns (in O) and 6.71 ns (in c1ccccc1).

As to `C[Si]1(C)c2cc(-c3ccc(-c4cccs4)s3)ccc2C=Cc2ccc(-c3ccc(-c4cccs4)s3)cc21`, the fluorescence lifetime (in ClCCl) amounted to 0.94 ns.

As to `CCN1/C(=C\c2c(-c3ccc(N(C)C)cc3)c(=O)c2=O)C=Cc2ccccc21`, the fluorescence lifetime was found to be 1 ns (in C1CCCCC1), 1.85 ns (in Cc1ccccc1) and 0.1 ns (in ClCCl).

With `CCN(CC)c1ccc2c(-c3ccccc3C(=O)O)c3c([o+]c2c1)/C(=C/C=C/c1ccc(N(C)C)cc1)CCC3`, the fluorescence lifetime (in ClCCl) amounted to 1.03 ns.

As to `CCCCn1c(-c2ccc(-c3nnc(-c4cccs4)o3)cc2)nc(-c2ccccc2)c1-c1ccccc1`, the fluorescence lifetime (in ClCCl) was found to be 1.65 ns.

Compound `c1ccc(-c2nc(-c3ccccc3)nc(-c3ccc(-n4c5ccccc5c5c6c(ccc54)C4(c5ccccc5-c5ccccc54)c4ccccc4-6)cc3)n2)cc1` came in with a fluorescence lifetime under setting [1] of 11.1 ns.

Consider `CCN(CC)c1ccc(OC)c(C=O)c1`, for which the fluorescence lifetime turned out to be 12.5 ns (in CC#N); 0.96 ns (in CC(C)O); 7.78 ns (in CCCCCC); 12.5 ns (in CCOC(C)=O); 20.9 ns (in CS(C)=O); 12.5 ns (in Cc1ccccc1). Moreover, the fluorescence lifetime (in ClCCl) worked out at 17 ns.

For the compound `Cc1ccccc1C1=C2C=c3c(oc4ccc(F)cc34)=[N+]2[B-](F)(F)n2c1cc1c3cc(F)ccc3oc12`, the fluorescence lifetime by setting is: (in C1CCCCC1) 4.02 ns; (in CCOC(C)=O) 4.22 ns; (in CO) 4.3 ns.
